Measurements taken from ChEMBL document CHEMBL1201862, “PubChem BioAssay data set” (2004).
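Five concentrations, 48 hours, 96-well plates. At the GI50, growth is halved.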 Calls of active or inactive are those of the source. Rule as the data show it: active = GI50 up to about 1.1 µM and inactive = higher.

Legend:
Experiment in all cases: growth of human tumour cells (NCI), 48 h
[1] = test system: Malme-3M
[2] = test system: OVCAR-5
[3] = test system: COLO 205
[4] = test system: XF498
[5] = test system: HOP-62
[6] = test system: 786-0
[7] = test system: HL-60
[8] = test system: OVCAR-4
[9] = test system: HT-29
[10] = test system: SR
[11] = test system: OVCAR-8
[12] = test system: HCC 2998
[13] = test system: UO-31
[14] = test system: RXF 393
[15] = test system: NCI-H226
[16] = test system: TK-10
[17] = test system: DLD-1
[18] = test system: SF-539
[19] = test system: SK-MEL-2
[20] = test system: RPMI-8226
[21] = test system: SF-268
[22] = test system: SK-MEL-5
[23] = test system: SW-620
[24] = test system: KM12
[25] = test system: NCI-H23
[26] = test system: OVCAR-3
[27] = test system: LXFL 529
[28] = test system: SF-295
[29] = test system: LOX IMVI
[30] = test system: HCT-116
[31] = test system: K562
[32] = test system: ACHN
[33] = test system: UACC-62
[34] = test system: HOP-18
[35] = test system: SNB-75
[36] = test system: DMS-273
[37] = test system: DMS-114
[38] = test system: U-251
[39] = test system: SK-MEL-28
[40] = test system: SNB-78
[41] = test system: SNB-19
[42] = test system: CAKI-1
[43] = test system: UACC-257
[44] = test system: M19-MEL
[45] = test system: EKVX
[46] = test system: MOLT-4
[47] = test system: M14
[48] = test system: RXF 631
[49] = test system: NCI-H460
[50] = test system: SK-OV-3
[51] = test system: KM-20L2
[52] = test system: A549
[53] = test system: NCI-H522
[54] = test system: HOP-92
[55] = test system: CCRF-CEM
[56] = test system: SN12C

Measured: GI50

CCOC(=O)/C(=C/c1ccc[nH]1)P(=O)(OCC)OCC
inactive: [1] > 100 µM | [2] > 100 µM | [3] > 100 µM | [4] > 100 µM | [5] > 100 µM | [6] > 100 µM | [7] > 100 µM | [8] > 100 µM | [9] > 100 µM | [10] > 100 µM | [11] > 100 µM | [12] > 100 µM | [13] > 100 µM | [14] > 100 µM | [15] > 100 µM | [16] > 100 µM | [17] > 100 µM | [18] > 100 µM | [19] > 100 µM | [20] > 100 µM | [21] > 100 µM | [22] > 100 µM | [23] > 100 µM | [24] > 100 µM | [25] > 100 µM | [26] > 100 µM | [27] > 100 µM | [28] > 100 µM | [29] > 100 µM | [30] > 100 µM | [31] > 100 µM | [32] > 100 µM | [33] > 100 µM | [34] > 100 µM | [35] 77.6 µM | [36] > 100 µM | [37] > 100 µM | [38] > 100 µM | [39] > 100 µM | [40] > 100 µM | [41] > 100 µM | [42] > 100 µM | [43] > 100 µM | [44] > 100 µM | [45] > 100 µM | [46] > 100 µM | [47] > 100 µM | [48] > 100 µM | [49] > 100 µM | [50] > 100 µM | [51] > 100 µM | [52] > 100 µM | [53] > 100 µM | [54] 94.2 µM | [55] > 100 µM | [56] > 100 µM
